Reference: patent publication US8574831B2, “Mutational profiles in HIV-1 reverse transcriptase correlated with phenotypic drug resistance” (Virco N.V., priority 2000, dated 2013)

Tested on: HIV with mutations in the HIV protease sequence
Experiment: Phenotypic fold resistance to protease inhibitors, protease mutations 84A/84L/84C/54M/54L/54V in a background (Examples 8-13)
Type: cell-based, HIV-1
Method: As is the case with the genotyping assays, the recombinant virus assay starts with the amplification of viral target sequences by means of PCR. The amplicons are incorporated into a proviral laboratory clone with sequences homologous to those present in the amplicon deleted. This generates a stock of chimeric viruses. The viruses are tested for their ability to grow in the presence of different concentrations of drugs. Results are obtained by calculating IC50 values for each inhibitor and by reporting the results as IC50 values, expressed in μM concentrations, or by computing the ratio of the IC50 values found for the chimeric virus to the IC50 values found for a wild type susceptible laboratory virus tested in parallel. In the latter case, resistance is expressed as “fold-resistance” compared to a wild-type susceptible HIV-1 strain. In order to meet the need for high-volume testing and a short turn-around time for an individual test, the latest generation of phenotyping assays has undergone further modifications. The use of reporter gene systems for susceptibility testing allows the implementation of laboratory automation and standardization. See Pauwels, et al., J. Virol. Methods 20, 309-321 (1998); Paulous, S., et al., International Workshop on HIV Drug Resistance, Treatment Strategies and Eradication, St. Petersburg, Fla., USA. Abstr. 46 (1997); and Deeks, S. G., et al., 2nd International Workshop on HIV Drug Resistance and Treatment Strategies, Lake Maggiore, Italy. Abstr. 53 (1998).
The ANTIVIROGRAM® assay (Virco) (WO 97/27480) is based on homologous recombination of patient derived HIV-1 gag/PR/RT sequences into a proviral HIV-1 clone correspondingly deleted for the gag/PR/RT sequences. See Pauwels, et al., J. Virol. Methods 20, 309-321 (1998). A similar assay (Phenosense ViroLogic) is based on enzymatic ligation of patient-derived PR/RT sequences into a correspondingly deleted proviral vector carrying an indicator gene, luciferase, inserted in the deleted HIV-1 envelope gene. See Deeks, S. G., et al., 2nd International Workshop on HIV Drug Resistance and Treatment Strategies, Lake Maggiore, Italy. Abstr. 53 (1998). Hertogs et al. Antimicrob. Agents Chemother. 44(3) 568-573 (2000) the disclosures of which are herein incorporated by reference.
The methods of monitoring HIV-1 drug resistance, may also be used in combination with phenotypic drug resistance testing of viral isolates. For example, in one embodiment, a phenotypic test is utilized that is based upon the construction of chimeric HIV-1 strains composed of the protease (PR) and reverse transcriptase (RT) gene sequences which are isolated and amplified from the patient viral RNA. These strains may subsequently be recombined inside CD4+ T cells with a standard laboratory isogenic (HXB2) HIV-1 DNA construct from which the PR/RT gene sequences were deleted. The recombinant strains may then be grown in the presence of the above-mentioned antiviral drugs and the susceptibility of the viral isolates may be expressed as fold-change value of the IC50 of the drug on the patient isolates over the IC50 of the drug on a wild-type laboratory reference strain.

Structure (SMILES): CC(C)(C)NC(=O)[C@@H]1CN(Cc2cccnc2)CCN1C[C@@H](O)C[C@@H](Cc1ccccc1)C(=O)N[C@H]1c2ccccc2C[C@H]1O [Indinavir, indinavir]
- Fold change in IC50 (Table 12, V055199, genotype 10I + 33F + 54M + 90M): 2.3 fold
- Fold change in IC50 (Table 13, V19263, genotype 77I): 0.4 fold
- Fold change in IC50 (Table 13, V20160, genotype WT): 0.9 fold
- Fold change in IC50 (Table 13, V021667, genotype 10I): 0.7 fold
- Fold change in IC50 (Table 13, V030496, genotype 10I + 77I): 0.4 fold
- Fold change in IC50 (Table 13, V048868, genotype 10I + 54L + 71V + 77I + 90M): 6.2 fold
- Fold change in IC50 (Table 13, V048874, genotype 10I + 33F + 54L + 71V + 77I + 90M): 2.1 fold
- Fold change in IC50 (Table 13, V048875, genotype 10I + 33F + 54L + 71V + 77I + 90M): 3.7 fold
- Fold change in IC50 (Table 13, V048877, genotype 10I + 33F + 77I + 90M): 2.9 fold
- Fold change in IC50 (Table 13, V048880, genotype 10I + 33F + 77I + 90M): 1.3 fold
- Fold change in IC50 (Table 13, V052940, genotype 71V): 0.7 fold
- Fold change in IC50 (Table 13, V052942, genotype 10I + 71V): 0.6 fold
- Fold change in IC50 (Table 13, V052943, genotype 10I + 90M): 0.5 fold
- Fold change in IC50 (Table 13, V052944, genotype 10I + 90M): 0.5 fold
- Fold change in IC50 (Table 13, V052945, genotype 77I + 90M): 0.6 fold
- Fold change in IC50 (Table 13, V052946, genotype 71V + 90M): 0.9 fold
- Fold change in IC50 (Table 13, V052947, genotype 10I + 77I + 90M): 2.9 fold
- Fold change in IC50 (Table 13, V052948, genotype 10I + 71V + 90M): 8.6 fold
- Fold change in IC50 (Table 13, V052949, genotype 10I + 71V + 77I + 90M): 2.7 fold
- Fold change in IC50 (Table 13, V052950, genotype 33F): 0.6 fold
- Fold change in IC50 (Table 13, V052951, genotype 33F + 77I): 0.4 fold
- Fold change in IC50 (Table 13, V052953, genotype 10I + 33F + 77I): 0.8 fold
- Fold change in IC50 (Table 13, V052954, genotype 33F + 77I + 90M): 1.7 fold
- Fold change in IC50 (Table 13, V052955, genotype 33F + 71V + 90M): 5.3 fold
- Fold change in IC50 (Table 13, V052968, genotype 10L/I + 33F/L + 54L + 77I): 1.3 fold
- Fold change in IC50 (Table 13, V052969, genotype 10I + 33F + 54L + 90M): 1.3 fold
- Fold change in IC50 (Table 13, V052970, genotype 54L): 0.6 fold
- Fold change in IC50 (Table 13, V052971, genotype 10I + 54L): 0.7 fold
- Fold change in IC50 (Table 13, V052972, genotype 54L + 77I): 0.8 fold
- Fold change in IC50 (Table 13, V052973, genotype 10I + 54L + 77I): 0.8 fold
- Fold change in IC50 (Table 13, V052974, genotype 10I + 54L + 90M): 1.7 fold
- Fold change in IC50 (Table 13, V052975, genotype 10I + 54L + 71V + 90M): 10.2 fold
- Fold change in IC50 (Table 13, V052976, genotype 10I + 54L + 71V + 77I + 90M): 1.7 fold
- Fold change in IC50 (Table 13, V053832, genotype 10I + 33F): 0.4 fold
- Fold change in IC50 (Table 13, V053854, genotype 54L + 71V): 1.7 fold
- Fold change in IC50 (Virco ID 214846, genotype 10I + 33F + 54V + 71V + 77I + 90M, vs mean IC50 of wild type laboratory HIV strain): 13.8 fold
- Fold change in IC50 (Virco ID V021667, genotype 10I, vs mean IC50 of wild type laboratory HIV strain): 0.7 fold
- Fold change in IC50 (Virco ID V030496, genotype 10I + 77I, vs mean IC50 of wild type laboratory HIV strain): 0.4 fold
- Fold change in IC50 (Virco ID V048876, genotype 33F + 54V + 77I + 90M, vs mean IC50 of wild type laboratory HIV strain): 0.6 fold
- Fold change in IC50 (Virco ID V048877, genotype 10I + 33F + 77I + 90M, vs mean IC50 of wild type laboratory HIV strain): 2.9 fold
- Fold change in IC50 (Virco ID V048880, genotype 10I + 33F + 77I + 90M, vs mean IC50 of wild type laboratory HIV strain): 1.3 fold
- Fold change in IC50 (Virco ID V052940, genotype 71V, vs mean IC50 of wild type laboratory HIV strain): 0.7 fold
- Fold change in IC50 (Virco ID V052942, genotype 10I + 71V, vs mean IC50 of wild type laboratory HIV strain): 0.6 fold
- Fold change in IC50 (Virco ID V052943, genotype 10I + 90M, vs mean IC50 of wild type laboratory HIV strain): 0.5 fold
- Fold change in IC50 (Virco ID V052944, genotype 10I + 90M, vs mean IC50 of wild type laboratory HIV strain): 0.5 fold
- Fold change in IC50 (Virco ID V052946, genotype 71V + 90M, vs mean IC50 of wild type laboratory HIV strain): 0.9 fold
- Fold change in IC50 (Virco ID V052947, genotype 10I + 77I + 90M, vs mean IC50 of wild type laboratory HIV strain): 2.9 fold
- Fold change in IC50 (Virco ID V052948, genotype 10I + 71V + 90M, vs mean IC50 of wild type laboratory HIV strain): 8.6 fold
- Fold change in IC50 (Virco ID V052949, genotype 10I + 71V + 77I + 90M, vs mean IC50 of wild type laboratory HIV strain): 2.7 fold
- Fold change in IC50 (Virco ID V052950, genotype 33F, vs mean IC50 of wild type laboratory HIV strain): 0.6 fold
- Fold change in IC50 (Virco ID V052951, genotype 33F + 77I, vs mean IC50 of wild type laboratory HIV strain): 0.4 fold
- Fold change in IC50 (Virco ID V052953, genotype 10I + 33F + 77I, vs mean IC50 of wild type laboratory HIV strain): 0.8 fold
- Fold change in IC50 (Virco ID V052954, genotype 33F + 77I + 90M, vs mean IC50 of wild type laboratory HIV strain): 1.7 fold
- Fold change in IC50 (Virco ID V052955, genotype 33F + 71V + 90M, vs mean IC50 of wild type laboratory HIV strain): 5.3 fold
- Fold change in IC50 (Virco ID V052957, genotype 10I + 33F + 54V + 90M, vs mean IC50 of wild type laboratory HIV strain): 1.4 fold
- Fold change in IC50 (Virco ID V052958, genotype 10I + 33F + 54V + 77I + 90M, vs mean IC50 of wild type laboratory HIV strain): 16.3 fold
- Fold change in IC50 (Virco ID V052959, genotype 10I + 33F + 54V + 77I + 90M, vs mean IC50 of wild type laboratory HIV strain): 12.8 fold
- Fold change in IC50 (Virco ID V052960, genotype 10I + 33F + 54V + 71V + 90M, vs mean IC50 of wild type laboratory HIV strain): 9.9 fold
- Fold change in IC50 (Virco ID V052961, genotype 54V, vs mean IC50 of wild type laboratory HIV strain): 0.7 fold
- Fold change in IC50 (Virco ID V052962, genotype 10I + 54V, vs mean IC50 of wild type laboratory HIV strain): 0.8 fold
- Fold change in IC50 (Virco ID V052963, genotype 54V + 77I + 90M, vs mean IC50 of wild type laboratory HIV strain): 1.2 fold
- Fold change in IC50 (Virco ID V052964, genotype 54V + 71V + 90M, vs mean IC50 of wild type laboratory HIV strain): 0.7 fold
- Fold change in IC50 (Virco ID V052965, genotype 10I + 54V + 77I + 90M, vs mean IC50 of wild type laboratory HIV strain): 8.2 fold
- Fold change in IC50 (Virco ID V052966, genotype 10I + 54V + 71V + 90M, vs mean IC50 of wild type laboratory HIV strain): 7.7 fold
- Fold change in IC50 (Virco ID V052967, genotype 10I + 54V + 71V + 77I + 90M, vs mean IC50 of wild type laboratory HIV strain): 0.4 fold
- Fold change in IC50 (Virco ID V053358, genotype 33F + 54V + 77I + 90M, vs mean IC50 of wild type laboratory HIV strain): 1.2 fold
- Fold change in IC50 (Virco ID V053831, genotype 33F + 54V, vs mean IC50 of wild type laboratory HIV strain): 5.4 fold
- Fold change in IC50 (Virco ID V053832, genotype 10I + 33F, vs mean IC50 of wild type laboratory HIV strain): 0.4 fold
